Laboratory results as given in US8580753B2, “Modulation of telomere length in telomerase positive cells and cancer therapy” (ALT Solutions Inc., priority 2005, dated 2013).
“Also recorded” adds a separate entry of the source. Read-outs that look alike come from different tables or passages of the source.

Experiments:
HeLa cell line [1] = assay: Telomere length by flow cytometry with telomere-specific PNA probe; assay type: cell-based, human
Method: (§1) Telomere length in GCV and ACV treated and untreated cell lines was measured by flow cytometry with a telomere-specific peptide nucleic acid (PNA) probe^23,24. To determine cell cycle distribution, cells were stained with propidium iodide (PI)^23.
(§2) The origin of the cell lines are uterine cervix (HeLa) and epithelial ovarian (NuTu-19). Cells were cultured in D-MEM media supplemented with 10% fetal calf serum at 37° C. in a humidified atmosphere of 5% CO2. For treatment of the cells with GCV, the media was supplemented with 1.5 µM of GCV (Cymevene, Hoffman-La Roche). For treatment of the cells with ACV, the media was supplemented with 3 µM of Aciclovir (Aciclovir, TEVA Pharm. Ind. Ltd, Israel).
(§3) For telomere length measurement by flow cytometry, cells were stained with telomere specific FITC conjugated (C3TA2)3 PNA (Applied Biosystems) probe and contrastained with 0.06 µg/ml PI as described by Rufer, N., Dragowska, W., Thornbury G., Roosnek, B., Lansdorp P. M. Telomere length dynamics in human lymphocyte subpopulations […]. Nat. Biotechnol. 16, 743-747 (1998)).

NuTu-19 cell line [2] = assay: as above; assay type: cell-based; settings: for telomere length: NuTu-19, GCV 1.5 μM or ACV 3.0 μM, 14 days
Method: as §1, §2, §3

HeLa cell line [3] = assay: Cell cycle distribution and apoptosis by propidium iodide staining and flow cytometry; assay type: cell-based, human
Method: as §1
(§4) It is important to note that changes were rapid and could be detected after only 14 days of ACV treatment. In contrast, the nucleoside analog, AZT had no effect on telomere length or cell cycle distribution in telomerase positive cells, HeLa and NuTu-19, even at elevated concentrations e.g., 100 µM (data not shown).
as §2, §3

NuTu-19 cell line [4] = assay: as above; assay type: cell-based
Method: as §1, §4, §2, §3

[5] = test system: telomerase positive cell lines; assay: DNA content by PI staining at later stages of treatment; assay type: cell-based; settings: compared to untreated cells, cell line not specified
Method: A rational explanation of this fact is a short telomere induced chromosome end-to-end joining^25.
as §2, §3

NuTu-19 cells = assay: Exemplary in vivo assay: pre-established NuTu-19 tumors in Fischer rats; settings: for tumor growth: in drinking water ad libitum, administered 21-28 days to tumor bearing rats
Method: In another embodiment, the reagents and methods of the invention can be used to promote tumor regression in vivo in immunocompetent animals carrying pre-established tumors; i.e., the reagents of the invention can be used to treat animals with pre-existing tumors. In this case, the cancerous 10^6 NuTu-19 cells are injected subcutaneously in the flank of the Fischer rats to establish tumors.

HeLa cells = assay: Nude mice injected s.c. with HeLa cells, Valcyte in drinking water; assay type: in vivo
Method: Human cancer HeLa cell culture was purchased from ATCC. In all, 12 CD1/-nu and 12 NMRiJI-nu nude mice were purchased from Charles River Laboratories, Charles River Deutschland GmbH. These nude mice were injected s.c. with […] HeLa cells. Experimental group received valganciclovir in drinking water from day 0. Specifically, mice in the experimental groups (6 mice per strain) were exposed to Valcyte (val-ganciclovir) in drinking water (1 mg/ml) from day 0. […] In about 14 days, all mice were bearing the tumors.

[6] = test system: telomerase positive cell lines; settings: prolonged exposure, cited from earlier work
[7] = single oral dose of 300 mg; cited from earlier work
mammalian cells = settings: short-time exposure, 5 μM, in vitro and in vivo; cited from earlier work
[8] = GCV 1.5 μM or ACV 3.0 μM, 14 days
[9] = NuTu-19, GCV 1.5 μM or ACV 3.0 μM, 14 days
[10] = even at elevated concentrations e.g. 100 μM (data not shown)
[11] = NuTu-19, even at elevated concentrations e.g. 100 μM (data not shown)

SMILES: Nc1nc(O)c2ncn(COC(CO)CO)c2n1 [GCV, ganciclovir]
- telomere length (HeLa cell line [1]; 1.5 μM GCV, 10 days, vs untreated cells (FIG. 1)): decrease in telomere length
- telomere length (HeLa cell line [1]; [8]): telomere shortening
- telomere length (NuTu-19 cell line [2]): telomere shortening
- apoptosis (HeLa cell line [3]; 1.5 μM GCV, 10 days (FIG. 1)): massive apoptosis
- cell cycle distribution (HeLa cell line [3]; 1.5 μM GCV, 10 days (FIG. 1, FIG. 3)): changes in the cell cycle distribution
- apoptosis (HeLa cell line [3]; [8]): massive apoptosis
- cell cycle distribution (HeLa cell line [3]; [8]): G2 arrest
- cell cycle distribution (NuTu-19 cell line [4]; NuTu-19, 1.5 μM GCV, 10 days (FIG. 3)): changes in the cell cycle distribution
- apoptosis (NuTu-19 cell line [4]; [9]): massive apoptosis
- cell cycle distribution (NuTu-19 cell line [4]; [9]): G2 arrest
- DNA content (PI staining) [5]: higher DNA content
- survival (NuTu-19 cells; few weeks after the start of the treatment): 100%
- tumor growth (NuTu-19 cells): retarded tumor growth

SMILES: CC(C)[C@H](N)C(=O)OCC(CO)OCn1cnc2c(=O)nc(N)[nH]c21 (stereo partly drawn) [Valcyte, valganciclovir]
- tumor development (HeLa cells; 1 mg/ml in drinking water from day 0, all mice bearing tumors in about 14 days): All mice in control and treated groups had developed tumors
- tumor regression (HeLa cells; one mouse from the treated group, by about the 30th day, monotherapy, 1 mg/ml in drinking water): this tumor was eliminated
- tumor growth (HeLa cells; other mice in the treated groups, 1 mg/ml in drinking water): slowing of tumor growth (stabilization)

SMILES: Cc1cn([C@H]2C[C@H](N=[N+]=[N-])[C@@H](CO)O2)c(=O)[nH]c1=O [AZT, 3′-azido-2′,3′-dideoxythymidine]
- effect on telomere length (HeLa cell line [1]; [10]): no effect
- effect on telomere length (NuTu-19 cell line [2]; [11]): no effect
- effect on cell cycle distribution (HeLa cell line [3]; [10]): no effect
- effect on cell cycle distribution (NuTu-19 cell line [4]; [11]): no effect
- telomere shortening ([6]; 100 μM (Murakami et al. 1999)): failed to induce any significant telomere shortening
- telomere shortening ([6]; 800 μM (Gomez et al. 1998; Tejera et al. 2001)): failed to induce any significant telomere shortening
- peak serum concentration [7]: less than 10 μM
- time of absorption [7]: ≤ 0.5 h
- toxic effects on mammalian cells (mammalian cells): induces undesirable toxic effects

SMILES: Nc1nc2c(ncn2COCCO)c(=O)[nH]1 [ACV, 9-[2(hydromethoxy)-methyl] guanine]
- telomere length (HeLa cell line [1]; [8]): telomere shortening
- telomere length (NuTu-19 cell line [2]): decrease in telomere length; also recorded: telomere shortening
- apoptosis (HeLa cell line [3]; [8]): massive apoptosis
- cell cycle distribution (HeLa cell line [3]; [8]): G2 arrest
- apoptosis (NuTu-19 cell line [4]; [9]): massive apoptosis
- cell cycle distribution (NuTu-19 cell line [4]; [9]): changes in cell cycle; also recorded: G2 arrest
- DNA content (PI staining) [5]: higher DNA content
- tumor growth (NuTu-19 cells): retarded tumor growth
